Here are results for ten compounds from patent US20050245465A1, “Compounds for treating Alzheimer's disease and for inhibiting beta-amyloid peptitde production” (priority 2004, published 2005).

For experiment [1], the system named is Neuro2a cells expressing the human Swedish mutant form of APP. Briefly: Aβ generation in Neuro2a-SW cells. The class given is cell-based, mouse. The source says: FIG. 16 depicts the effects of two major metabolites of ginsenosides, including 20(S)-protopanaxatriol (PPT) and 20(S)-protopanaxadiol (PPD) on Aβ42 generation. 20(S)-panaxatriol (PT) and 20(S)-panaxadiol (PD) are the artificial derivatives of PPT and PPPD, respectively.
Ginsenosides are metabolized by human intestinal bacteria after oral administration of ginseng extract (Kobayashi K., et al., Metabolism of ginsenoside by human intestinal bacteria [II] Ginseng Review 1994; 18: 10-14; Hasegawa H., et al., Main ginseng saponin metabolites formed by intestinal bacteria. Planta Med. 1996; 62: 453-457.). Therefore, the effects of two major metabolites of ginsenosides, including 20(S)-protopanaxatriol (PPT) and 20(S)-protopanaxadiol (PPD) on Aβ42 generation were tested. 20(S)-panaxatriol (PT) and 20(S)-panaxadiol (PD) are the artificial derivatives of PPT and PPPD, respectively.

The test system of experiment [2] is CHO cells expressing human APP. Briefly: Secreted Aβ40/Aβ42 ELISA in medium of CHO-APP cells. Type of experiment: cell-based, Chinese hamster. Details: key to Aβ42-lowering activity: Aβ42-lowering activity (“Yes”); no profound effects (“No”); non-determined (“ND”); Ginsenosides that affected cell viability are indicated as “Cytotoxic.”. Particulars: for Aβ42-lowering activity: Tables 1-3; for inhibitory effects on Aβ40 and Aβ42 production: 8 hours of incubation, ginsenosides from white ginseng. How it is done: The CHO cells were treated with the indicated compounds (at 50 μg/ml) for 8 hrs. Aβ42 levels in the medium were measured by ELISA and normalized to intracellular full-length APP.
The potential effects of ginsenosides and their analogues in treating AD were examined. First, a number of ginsenosides were screened based on their effects on Aβ generation. The effects of various ginsenosides on Aβ (e.g., Aβ40 and Aβ42) production was initially accessed by incubating the Chinese hamster ovary (CHO) cells expressing human APP(CHO-APP cells) with each ginsenoside purified from unprocessed ginseng (known as “white ginseng”). These representative ginsenosides included Rb1, Rb2, Rc, Rd, Re, Re, Rg1 and Rg2 and differ in their side chains and sugar moieties.
After 8 hours of incubation, the media were collected and the levels of secreted Aβ40 and Aβ42 were determined by ELISA.
Steaming ginseng at high temperature gave rise to additional ginsenosides with enhanced pharmacological activity, including (20S)Rg3, Rk1 and Rg5 (22-25). Next, the effects of these heat-processing derived ginsenosides (e.g., (20S)Rg3, Rh1, Rh2, Rk1, Rg6, Rg5) on Aβ40 and Aβ42 generation were tested. […] In contrast, Aβ42 levels were not affected by (20R)Rg3, Rh1, and Rg6. Aβ40 levels were not changed by treatment with any of the ginsenosides tested. The potency of Aβ42-lowering activity was highest with Rk1 and (20S)Rg3. […] The secretion of Aβ40 was affected by treatment with Rk1 only at very high concentration (˜100 μM) and cell viability was not affected by treatment of Rk1 under these conditions (up to 100 μM, 8 hour treatment; data not shown). […] Overnight treatment with Rgk351, Rk1, and Rg5 also reduce Aβ42 production in CHO-APP cells (FIG. 12B). […] These studies provide a structure-activity relationship between the chemical structures of ginsenosides and Aβ42-lowering activity, further providing the basis for designing additional Aβ42-lowering analogues as well as for defining a class of compounds that harbor Aβ42-lowering activity.
A general note: In an ELISA, binding on a coated surface is turned into a signal by an enzyme label.

The subject of the next experiment is CHO-APP/PS1 cells. Briefly: Secreted Aβ40/Aβ42 ELISA in CHO-APP/PS1 cells. Type of experiment: cell-based, Chinese hamster. Particulars: 50 μM, 8 hrs. How it is done:
FIG. 10 depicts the effects of native ginsenosides on Aβ42 production. CHO cells stably transfected with human APP695 together with either wild-type (A, CHO-APP/PS1 cells) or ΔE9 FAD mutant (B, CHO-APP/ΔE9PS1 cells) forms of PS1 were used. Cells were treated with the indicated compounds (at 50 μM) for 8 hrs. Levels of secreted Aβ40 and Aβ42 in the medium were determined by ELISA and normalized to intracellular full-length APP. In CHO-APP/PS1 cells, average Aβ amounts in control samples were 320 pM for Aβ40 and 79 pM for Aβ42. The relative levels of Aβ and Aβ42 were normalized to values obtained from non-treated and vehicle-treated cells and are shown as % to control+s.d.). One of three representative experiments are shown.
CHO-APP/PS1 (A) and CHO-APP/ΔE9PS1 (B) cells were treated with the indicated compounds at 50 μM for 8 hrs and the levels of secreted Aβ40 and Aβ42 were determined as described in FIG. 1. […] The PS1-ΔE9 FAD mutation diminished the Aβ42 response to Rk1 treatment (B).

Another experiment relates to γ-secretase. Briefly: Cell-free γ-secretase assay (CHAPSO-solubilized membrane fractions, Aβ ELISA). Type of experiment: biochemical. To be noted: cell-free γ-secretase assay, partially purified γ-secretase complex; 100 μM. As for the experimental part:
(A) CHAPSO-solubilized membrane fractions were incubated with recombinant γ-secretase substrates together with the indicated compounds (at 100 μM) and the levels of Aβ42 and Aβ40 were determined by ELISA as described (27-29). (B) Dose-response of Aβ40 and Aβ42-lowering activity of Rk1 and (20S)Rg3 in a cell-free γ-secretase assay.
Next, the inhibitory effects of Rk1 and (20S)Rg3 on Aβ generation in an in vitro γ-secretase assay was studied. […] In contrast, naproxen, an NSAID without Aβ42-lowering activity, had no effects on Aβ42 production (FIG. 15A).

Where [3] appears, read: Neuro2a-SW, also CHO cells expressing wild-type human APP.

As to `CC(C)=CCCC(C)(O)[C@H]1CC[C@]2(C)[C@@H]1[C@H](O)C[C@@H]1[C@@]3(C)CC[C@H](O)C(C)(C)[C@@H]3CC[C@]12C` (stereo in doubt) [PPD, Protopanaxadiol], in experiment [1], the “inhibitory effects on Aβ40 or Aβ42 generation” value was “did not confer any inhibitory effects”. In experiment [2], the Aβ42-lowering activity result is given as “No”. Take `CC(C)=CCC[C@@](C)(O)[C@H]1CC[C@]2(C)[C@@H]1[C@H](O)C[C@@H]1[C@@]3(C)CC[C@H](O[C@@H]4O[C@H](CO)[C@@H](O)[C@H](O)[C@H]4O[C@@H]4O[C@H](CO)[C@@H](O)[C@H](O)[C@H]4O)C(C)(C)[C@@H]3CC[C@]12C` [(20R)Rg3]: the “potency of Aβ42-reducing activity (order)” value with CHO-APP/PS1 cells was “Rk1>/=(20S)Rg3>Rg5>(20R)Rg3”. Moreover, the “generation of Aβ42 (Aβ42 levels in the medium, ELISA, normalized to intracellular full-length APP)” value in experiment [2] (CHO cells stably transfected with human APP695, 50 μg/ml, 8 hrs) is recorded as “reduce”. For the same compound, the Aβ42-lowering activity result in experiment [2] is “Yes”. Also, the “secretion of Aβ42 (initial screening)” value in experiment [2] (heat-processing derived ginsenosides) is recorded as “not affected”. Consider `CC1(C)CCC[C@](C)([C@H]2CC[C@]3(C)[C@@H]2[C@H](O)C[C@@H]2[C@@]4(C)CC[C@H](O)C(C)(C)[C@@H]4CC[C@]23C)O1` [PD, 20(S)-panaxadiol], for which the “inhibitory effects on Aβ40 or Aβ42 generation” value in experiment [1] is recorded as “did not confer any inhibitory effects”.

Take `CC1(C)CCC[C@](C)([C@H]2CC[C@]3(C)[C@@H]2[C@H](O)C[C@@H]2[C@@]4(C)CC[C@H](O)C(C)(C)[C@@H]4[C@@H](O)C[C@]23C)O1` [PT, 20(S)-panaxatriol]: in experiment [1] (setting [3]), the “levels of Aβ42” value is reported as “without affecting” and the “production of Aβ42” value is “reduced”. For `CC(C)=CCC[C@](C)(O[C@@H]1O[C@H](CO[C@@H]2O[C@H](CO)[C@@H](O)[C@H](O)[C@H]2O)[C@@H](O)[C@H](O)[C@H]1O)[C@H]1CC[C@]2(C)[C@@H]1[C@H](O)C[C@@H]1[C@@]3(C)CC[C@H](O[C@@H]4O[C@H](CO)[C@@H](O)[C@H](O)[C@H]4O[C@@H]4O[C@H](CO)[C@@H](O)[C@H](O)[C@H]4O)C(C)(C)[C@@H]3CC[C@]12C` [Rb1], in experiment [2], the “inhibitory effects on Aβ40 and Aβ42 production” value is reported as “None”; the Aβ42-lowering activity entry is reported as “No”.

Take `CC(C)=CCC[C@](C)(O[C@@H]1O[C@H](CO[C@@H]2OC[C@H](O)[C@H](O)[C@H]2O)[C@@H](O)[C@H](O)[C@H]1O)[C@H]1CC[C@]2(C)[C@@H]1[C@H](O)C[C@@H]1[C@@]3(C)CC[C@H](O[C@@H]4O[C@H](CO)[C@@H](O)[C@H](O)[C@H]4O[C@@H]4O[C@H](CO)[C@@H](O)[C@H](O)[C@H]4O)C(C)(C)[C@@H]3CC[C@]12C` [Rb2]: in experiment [2], the “inhibitory effects on Aβ40 and Aβ42 production” value was “None”; the Aβ42-lowering activity entry is “No”. For the compound `CC(C)=CCC[C@](C)(O[C@@H]1O[C@H](CO[C@@H]2OC[C@@H](O)[C@H](O)[C@H]2O)[C@@H](O)[C@H](O)[C@H]1O)[C@H]1CC[C@]2(C)[C@@H]1[C@H](O)C[C@@H]1[C@@]3(C)CC[C@H](O[C@@H]4O[C@H](CO)[C@@H](O)[C@H](O)[C@H]4O[C@@H]4O[C@H](CO)[C@@H](O)[C@H](O)[C@H]4O)C(C)(C)[C@@H]3CC[C@]12C` [Rb3], in experiment [2], the Aβ42-lowering activity result is recorded as “No”. For `CC(C)=CCC[C@](C)(O[C@@H]1O[C@H](CO)[C@@H](O)[C@H](O)[C@H]1O)[C@H]1CC[C@]2(C)[C@@H]1[C@H](O)C[C@@H]1[C@@]3(C)CC[C@H](O)C(C)(C)[C@@H]3[C@@H](O[C@@H]3O[C@H](CO)[C@@H](O)[C@H](O)[C@H]3O)C[C@]12C` [Rg1], in experiment [2], the “inhibitory effects on Aβ40 and Aβ42 production” value was “None”; the Aβ42-lowering activity result is “No”. Besides, the “production of Aβ42 in cells (summary statement)” value in experiment [2] (mammalian cells, in vitro) was “no amyloid reducing activity in vitro”. Turning to `C=C(CCC=C(C)C)[C@H]1CC[C@]2(C)[C@@H]1[C@H](O)C[C@@H]1[C@@]3(C)CC[C@H](O)C(C)(C)[C@@H]3[C@@H](O[C@@H]3O[C@H](CO)[C@@H](O)[C@H](O)[C@H]3O)C[C@]12C` [Rk3], the Aβ42-lowering activity entry in experiment [2] is “No”. As to `COc1ccc2cc([C@H](C)C(=O)O)ccc2c1` [naproxen, reference compound], the “Aβ42 generation in vitro” value in the experiment with γ-secretase is “no effects”.
